In ChEMBL document CHEMBL4052760, “Synthesis, antioxidant and antiproliferative activities of 1,3,4-thiadiazoles derived from phenolic acids” (Bioorg Med Chem Lett, 2017):
Calls of active or inactive are those of the source. The calls are words filed in the database; no cut-off is given here.

Key:
[1] = tested on: HL-60; test: Downregulation of VEGFA in human HL60 cells assessed as decrease in mRNA expression levels at 6 uM after 24 hrs by RT-PCR analysis; type: functional, cell-based
[2] = tested on: A549; test: Cytotoxicity against human A549 cells after 72 hrs by MTT assay; type: functional, cell-based; details: A549, 72 h
[3] = tested on: HL-60; test: Induction of apoptosis in human HL60 cells assessed as secondary necrosis at 2 times IC50 measured after 24 hrs by acridine orange/ethidium bromide staining-based fluorescence microscopic method; type: functional, cell-based
[4] = tested on: HL-60; test: Induction of apoptosis in human HL60 cells assessed as chromatin condensation at 2 times IC50 measured after 24 hrs by acridine orange/ethidium bromide staining-based fluorescence microscopic method; type: functional, cell-based
[5] = tested on: HL-60; test: Induction of apoptosis in human HL60 cells assessed as nuclear fragmentation at 2 times IC50 measured after 24 hrs by acridine orange/ethidium bromide staining-based fluorescence microscopic method; type: functional, cell-based
[6] = tested on: HL-60; test: Induction of cell death in human HL60 cells assessed as decrease in percentage of cells in subG1 phase at 2 times IC50 pretreated for 72 hrs followed by caspase-9 inhibitor Z-LEHD-FMK addition measured after 24 hrs by propidium iodide-staining based FACS analysis; type: functional
[7] = tested on: HL-60; test: Induction of cell death in human HL60 cells assessed as decrease in percentage of cells in subG1 phase at 2 times IC50 pretreated for 72 hrs followed by caspase-8 inhibitor Z-IETD-FMK addition measured after 24 hrs by propidium iodide-staining based FACS analysis; type: functional
[8] = tested on: HL-60; test: Downregulation of MMP9 in human HL60 cells assessed as decrease in mRNA expression levels at 6.5 uM after 24 hrs by RT-PCR analysis; type: functional, cell-based
[9] = Antioxidant activity assessed as DPPH radical scavenging activity after 30 mins in absence of light; type: functional
[10] = tested on: HL-60; test: Induction of cell death in human HL60 cells assessed as decrease in percentage of cells in subG1 phase at 2 times IC50 pretreated for 72 hrs followed by caspase-3 inhibitor Z-DEVD-FMK addition measured after 24 hrs by propidium iodide-staining based FACS analysis; type: functional
[11] = tested on: MRC5; test: Cytotoxicity against human MRC5 cells after 72 hrs by MTT assay; type: cell-based; details: MRC5, 72 h
[12] = tested on: HL-60; test: Downregulation of VEGFA in human HL60 cells assessed as decrease in mRNA expression levels at 6.5 uM after 24 hrs by RT-PCR analysis; type: functional, cell-based
[13] = tested on: HL-60; test: Downregulation of MMP9 in human HL60 cells assessed as decrease in mRNA expression levels at 6 uM after 24 hrs by RT-PCR analysis; type: functional, cell-based
[14] = tested on: EA.hy 926; test: Antiangiogenic activity against human EAhy926 cells assessed as inhibition of capillary-like tube formation at 50 uM measured after 20 hrs by inverted phase contrast microscopic analysis; type: functional, cell-based
[15] = tested on: HL-60; test: Cytotoxicity against human HL60 cells after 72 hrs by MTT assay; type: functional, cell-based; details: HL-60, 72 h
[16] = tested on: HL-60; test: Downregulation of MMP2 in human HL60 cells assessed as decrease in mRNA expression levels at 6 uM after 24 hrs by RT-PCR analysis; type: functional, cell-based
[17] = tested on: HL-60; test: Downregulation of MMP2 in human HL60 cells assessed as decrease in mRNA expression levels at 6.5 uM after 24 hrs by RT-PCR analysis; type: functional, cell-based
[18] = tested on: HeLa; test: Cytotoxicity against human HeLa cells after 72 hrs by MTT assay; type: functional, cell-based
[19] = tested on: HL-60; test: Cell cycle arrest in human HL60 cells assessed as accumulation at subG1 phase at 2 times IC50 after 24 hrs by FACS analysis; type: functional, cell-based
[20] = tested on: EA.hy 926; test: Antiangiogenic activity against human EAhy926 cells assessed as inhibition of capillary-like tube formation at 30 uM measured after 20 hrs by inverted phase contrast microscopic analysis; type: functional, cell-based
[21] = tested on: HL-60; test: Cell cycle arrest in human HL60 cells assessed as accumulation at subG1 phase at IC50 after 24 hrs by FACS analysis; type: functional, cell-based
[22] = tested on: HL-60; test: Cytoprotective activity against H2O2-induced oxidative stress in human HL60 cells assessed as decrease in level of reactive oxygen species pretreated for 24 hrs at 6 uM followed by H2O2-stimulation for 30 mins by DCFH-DA staining-based FACS analysis; type: functional, cell-based
[23] = tested on: HL-60; test: Cytoprotective activity against H2O2-induced oxidative stress in human HL60 cells assessed as decrease in level of reactive oxygen species pretreated for 24 hrs at 6.25 uM followed by H2O2-stimulation for 30 mins by DCFH-DA staining-based FACS analysis; type: functional, cell-based
[24] = tested on: HL-60; test: Cytoprotective activity against H2O2-induced oxidative stress in human HL60 cells assessed as decrease in level of reactive oxygen species pretreated for 24 hrs at 6.5 uM followed by H2O2-stimulation for 30 mins by DCFH-DA staining-based FACS analysis; type: functional, cell-based

SMILES	IC50 [2]	IC50 [9]	IC50 [11]	IC50 [15]	IC50 [18]	other results
Cc1ccc(C(=O)Nc2nnc(-c3cccc(O)c3O)s2)cc1	11.3 µM	27.1 µM	33.2 µM	10.6 µM	13.4 µM	Activity [1]: Active; Activity [3]: Active; Activity [4]: Active; Activity [5]: Active; Activity [6]: inactive; Activity [7]: Active; Activity [8]: inactive; Activity [10]: Active; Activity [12]: Active; Activity [13]: inactive; Activity [14]: Active; Activity [16]: Active; Activity [17]: Active
O=C(Cc1ccccc1)Nc1nnc(-c2cccc(O)c2O)s1	11.8 µM	20.9 µM	45.3 µM	13.9 µM	120 µM	
O=C(Nc1nnc(-c2ccc(O)c(O)c2)s1)C1CCCCC1	16.3 µM	37.3 µM	24 µM	8.8 µM	34.5 µM	
O=C(Cc1ccccc1)Nc1nnc(-c2ccc(O)c(O)c2)s1	15.4 µM	21.3 µM	30.7 µM	12 µM	88.6 µM	
O=C(COc1ccccc1)Nc1nnc(-c2ccc(O)c(O)c2)s1	21.2 µM	36.1 µM	30.9 µM	17.4 µM	51.3 µM	
O=C(Nc1nnc(-c2cccc(O)c2O)s1)C12CC3CC(CC(C3)C1)C2	12.8 µM	14.2 µM	27.7 µM	7.3 µM	21.4 µM	Activity [1]: Active; Activity [19]: Active; Activity [3]: Active; Activity [4]: Active; Activity [5]: Active; Activity [6]: inactive; Activity [20]: Active; Activity [7]: Active; Activity [8]: inactive; Activity [10]: Active; Activity [12]: Active; Activity [13]: inactive; Activity [21]: Active; Activity [16]: Active; Activity [17]: Active; Activity [22]: Active
O=C(COc1ccccc1)Nc1nnc(-c2cccc(O)c2O)s1	10.5 µM	16.6 µM	33.9 µM	11.2 µM	117 µM	Activity [23]: Active
O=C(Nc1nnc(-c2cccc(O)c2O)s1)c1ccc(Cl)cc1	9.5 µM	30.2 µM	18.7 µM	9.6 µM	13 µM	Activity [1]: Active; Activity [3]: Active; Activity [4]: Active; Activity [5]: Active; Activity [6]: inactive; Activity [7]: Active; Activity [8]: inactive; Activity [10]: Active; Activity [12]: Active; Activity [13]: inactive; Activity [14]: Active; Activity [16]: Active; Activity [17]: Active
O=C1O[C@H]([C@@H](O)CO)C(O)=C1O [ASCORBIC ACID]		38 µM				
O=C(Nc1nnc(-c2cccc(O)c2O)s1)c1ccccc1	12.3 µM	22.3 µM	23.2 µM	20.7 µM	21.8 µM	
Cc1ccc(C(=O)Nc2nnc(-c3ccc(O)c(O)c3)s2)cc1	11.8 µM	34 µM	27.1 µM	10.5 µM	67.1 µM	
O=C(Nc1nnc(-c2cccc(O)c2O)s1)C1CCCCC1	11 µM	19.9 µM	70.3 µM	7.9 µM	91.6 µM	Activity [23]: Active
O=C(Nc1nnc(-c2ccc(O)c(O)c2)s1)c1ccccc1	13 µM	23.4 µM	27.4 µM	17.6 µM	23.3 µM	
CC(=O)Nc1nnc(-c2ccc(O)c(O)c2)s1	133 µM	23.4 µM	58.6 µM	42.5 µM	125 µM	
CC(=O)Nc1nnc(-c2cccc(O)c2O)s1	200 µM	111 µM	156 µM	49 µM	177 µM	
O=C(Nc1nnc(-c2ccc(O)c(O)c2)s1)c1ccc(Cl)cc1	14.6 µM	53 µM	30.6 µM	14.7 µM	47.3 µM	
O=C(Nc1nnc(-c2ccc(O)c(O)c2)s1)C12CC3CC(CC(C3)C1)C2	13 µM	17.9 µM	20.1 µM	7.4 µM	16.1 µM	Activity [1]: Active; Activity [3]: Active; Activity [4]: Active; Activity [5]: Active; Activity [6]: inactive; Activity [20]: Active; Activity [7]: Active; Activity [8]: inactive; Activity [10]: Active; Activity [12]: Active; Activity [13]: inactive; Activity [24]: Active; Activity [16]: Active; Activity [17]: Active
CC(Cc1ccc(O)c(O)c1)C(C)Cc1ccc(O)c(O)c1 (stereo not given) [NORDIHYDROGUAIARETIC ACID]		20.8 µM				
